Assays:
[1] = system: A-549 human lung carcinoma cell line; test: Antiproliferative assay, A-549; conditions: Homo sapiens, A549, read-out: Antiproliferative Activity IC50 ± SEM, A-549
Procedure: (§1) For a rigorous assessment, the widely accepted MTT assay [63, 64] was employed. Using Doxorubicin, a well-established drug, as the reference standard ensures a benchmark for the synthesized compounds, allowing a contextual understanding of their efficacy.
(§2) The MTT assay [63, 64] was employed for this assessment, with Doxorubicin as the reference drug.
(§3) 24h followed by the addition of synthesized compounds (in 200 μL medium to yield a final concentration of 0.1% (v/v) dimethyl sulfoxide) into individual wells of the plates. Four wells were designated to a single compound. The plates were allowed to incubate at 37°C for 96 h. After wards, the medium was aspirated and 3-[4,5-dimethylthiazol-2-yl]-2,5-diphenyltetrazolium bromide (MTT) (0.4 mg/mL) in medium was added to each well and subsequently incubated for 3 h. The medium was aspirated and 150 μL dimethyl sulfoxide (DMSO) was added to each well.
(§4) The plates were vortexed followed by the measurement of absorbance at 540 nm on a microplate

[2] = Cell viability (cytotoxicity) MTT assay in non-tumorigenic MCF-10A cells; type: cell-based, human; conditions: human, MCF-10A mammary epithelial cells
[3] = system: MCF-7 human breast adenocarcinoma cell line; test: Antiproliferative assay, MCF-7; conditions: Homo sapiens, MCF7, read-out: Antiproliferative Activity IC50 ± SEM, MCF-7
Procedure: as §1, §2, §3, §4

[4] = system: four cancer cell lines (A-549, MCF-7, Panc-1, HT-29); test: Antiproliferative assay, average over four cancer cell lines (GI50); conditions: Homo sapiens, read-out: Average IC50 (GI50)
Procedure: as §1, §2, §3, §4

[5] = system: HT-29 human colon cancer cell line; test: Antiproliferative assay, HT-29; conditions: Homo sapiens, HT-29, read-out: Antiproliferative Activity IC50 ± SEM, HT-29
Procedure: as §1, §2, §3, §4

[6] = system: Panc-1 human pancreatic cancer cell line; test: Antiproliferative assay, Panc-1; conditions: Homo sapiens, PANC-1, read-out: Antiproliferative Activity IC50 ± SEM, Panc-1
Procedure: as §1, §2, §3, §4

| SMILES | IC50 [1] | viability at 4 days, 50 µM [2] | IC50 [3] | IC50 [4] | IC50 [5] | IC50 [6] |
| --- | --- | --- | --- | --- | --- | --- |
| CCn1c(SCC(=O)Nc2ccc(-c3cc(-c4ccccc4)c(C#N)c(=O)[nH]3)cc2)nc2ccccc2c1=O [Compound 7, N-(4-(5-Cyano-6-oxo-4-phenyl-1,6-dihydropyridin-2-yl)phenyl)-2-((3-ethyl-4-oxo-3,4-dihydroquinazolin-2-yl)thio)acetamide] | 9.2 ± 0.8 µM | 90% | 9.1 ± 0.8 µM | 9.3 µM | 9.8 ± 0.9 µM | 9.3 ± 0.8 µM |
| CCn1c(SCC(=O)Nc2ccc(-c3cc(-c4ccc(Br)cc4)c(C#N)c(=O)[nH]3)cc2)nc2ccccc2c1=O [Compound 10, N-(4-(4-(4-Bromophenyl)-5-cyano-6-oxo-1,6-dihydropyridin-2-yl)phenyl)-2-((3-ethyl-4-oxo-3,4-dihydroquinazolin-2-yl)thio)acetamide] | 2.4 ± 0.2 µM | 88% | 2.2 ± 0.45 µM | 2.5 µM | 2.7 ± 0.2 µM | 2.6 ± 0.2 µM |
| CCn1c(SCC(=O)Nc2ccc(-c3cc(-c4ccc(F)cc4)c(C#N)c(=O)[nH]3)cc2)nc2ccccc2c1=O [Compound 11, N-(4-(5-Cyano-4-(4-fluorophenyl)-6-oxo-1,6-dihydropyridin-2-yl)phenyl)-2-((3-ethyl-4-oxo-3,4-dihydroquinazolin-2-yl)thio)acetamide] | 3.7 ± 0.3 µM | 91% | 3.6 ± 0.3 µM | 3.8 µM | 4 ± 0.3 µM | 3.8 ± 0.3 µM |
| N#Cc1c(-c2ccccc2)cc(-c2ccc(NC(=O)CSc3nc4ccccc4c(=O)n3-c3ccccc3)cc2)[nH]c1=O [Compound 12, N-(4-(5-Cyano-6-oxo-4-phenyl-1,6-dihydropyridin-2-yl)phenyl)-2-((4-oxo-3-phenyl-3,4-dihydroquinazolin-2-yl)thio)acetamide] | 7.5 ± 0.6 µM | 86% | 7.2 ± 0.7 µM | 7.5 µM | 7.7 ± 0.7 µM | 7.8 ± 0.7 µM |
| COc1ccc(-c2cc(-c3ccc(NC(=O)CSc4nc5ccccc5c(=O)n4-c4ccccc4)cc3)[nH]c(=O)c2C#N)cc1 [Compound 13, N-(4-(5-Cyano-4-(4-methoxyphenyl)-6-oxo-1,6-dihydropyridin-2-yl)phenyl)-2-((4-oxo-3-phenyl-3,4-dihydroquinazolin-2-yl)thio)acetamide] | 3.2 ± 0.3 µM | 87% | 3.1 ± 0.3 µM | 3.3 µM | 3.5 ± 0.3 µM | 3.4 ± 0.3 µM |
| N#Cc1c(-c2ccc(Cl)cc2)cc(-c2ccc(NC(=O)CSc3nc4ccccc4c(=O)n3-c3ccccc3)cc2)[nH]c1=O [Compound 14, N-(4-(4-(4-Chlorophenyl)-5-cyano-6-oxo-1,6-dihydropyridin-2-yl)phenyl)-2-((4-oxo-3-phenyl-3,4-dihydroquinazolin-2-yl)thio)acetamide] | 4.1 ± 0.4 µM | 89% | 3.9 ± 0.4 µM | 4.1 µM | 4.2 ± 0.4 µM | 4.2 ± 0.4 µM |
| N#Cc1c(-c2ccc(Br)cc2)cc(-c2ccc(NC(=O)CSc3nc4ccccc4c(=O)n3-c3ccccc3)cc2)[nH]c1=O [Compound 15, N-(4-(4-(4-Bromophenyl)-5-cyano-6-oxo-1,6-dihydropyridin-2-yl)phenyl)-2-((4-oxo-3-phenyl-3,4-dihydroquinazolin-2-yl)thio)acetamide] | 4.7 ± 0.4 µM | 87% | 4.6 ± 0.4 µM | 4.8 µM | 4.9 ± 0.4 µM | 5 ± 0.4 µM |
| COc1cccc2c1C(=O)c1c(O)c3c(c(O)c1C2=O)C[C@@](O)(C(=O)CO)C[C@@H]3O[C@H]1C[C@H](N)[C@H](O)[C@H](C)O1 [Doxorubicin, reference compound] | 1.2 ± 0.1 µM | – | 0.9 ± 0.1 µM | 1.1 µM | 1 ± 0.1 µM | 1.4 ± 0.1 µM |

Reference: article PMC10674657, “Quinazolin-4-one/3-cyanopyridin-2-one Hybrids as Dual Inhibitors of EGFR and BRAF^V600E: Design, Synthesis, and Antiproliferative Activity” (Pharmaceuticals, 2023)
